Test [1] in a line: Odour threshold value in air on a dynamic olfactometer. Particulars: for odour threshold value in air: dynamic olfactometer, mean of 24 measured values (8 trained assessors, three passes), refers to the pure substance. As for the experimental part:
The odour threshold values in air were determined for the substance (E)-3-methyl-2-hexenoic acid also occurring in sweat and 3-mercapto-3-methyl-hexan-1-ol recently found in sweat.
The odour threshold value denotes the concentration of an olfactorily perceptible substance in air at which this can be distinguished from the odourless ambient air.
Determination is carried out on a dynamic olfactometer. A sample of 20 μl each of dilute solutions of the components is placed in a container with 7 l air. The samples in the olfactometer are diluted clearly below the odour threshold by defined addition of odourless air. In the olfactometer, the concentrations in the sample air are increased little by little until all the assessors have characterised a perception. A group of 8 trained assessors determines the concentration of the samples to be distinguished in odour from air on three passes each so that the mean value of 24 measured values leads to the respective concentrations. The (E)-3-methyl-2-hexenoic acid is measured at 1% and the 3-mercapto-3-methyl-hexan-1-ol at 0.1% in odourless dipropylene glycol. The different dilutions were taken into account for calculating the threshold values. The threshold values refer to the pure substances. The threshold value of the (E)-3-methyl-2-hexenoic acid was determined at 15.1 ng/l air. The threshold value for the 3-mercapto-3-methyl-hexan-1-ol was determined at 0.015 ng/l air. All assessors evaluated the threshold value of 3-mercapto-3-methyl-hexan-1-ol lower than (E)-3-methyl-2-hexenoic acid in all passes.

Test [2] can be described thus: Raw material test against sweat odour (masking of malodour standard, assessor panel). The note with it: for intrinsic odour / perfumistic impression (in words) / reduction in the bad odour based on 3-mercapto-3-methyl-hexan-1-ol (in words): prior-art fragrances examined by the applicant.
Test [3] can be described thus: Application test in the formulations (smelling strips, assessor panel). The arrangement: Malodour reduction value: scale not given here. The note with it: smelling strip, 1 μl 3-mercapto-3-methyl-hexan-1-ol solution (0.001% in DPG), at least 12 experts. Here is the method:
Mixtures A-C and the fragrances of Table 4 were incorporated in the formulations of Examples 3-12 as perfume oil. […] The coding smelling strips were evaluated sensorily by a group of assessors of at least 12 experts.

The mark [4] stands for this setting: Table 1, 1 μl fragrance + 5 μl 3-mercapto-3-methyl-hexan-1-ol (0.1% in DPG) in 7 l air, 15 h at approx. 20° C., scale 1 to 9, malodour standard mixture = 6, mean of at least 8 assessors.
[5] abbreviates: Table 3 (adequate malodour-reducing action but significant increase in intensity), 1 μl fragrance + 5 μl 3-mercapto-3-methyl-hexan-1-ol (0.1% in DPG) in 7 l air, 15 h, scale 1 to 9, standard = 6.
[6] abbreviates: in EXAMPLE 3: ROLL-ON DEODORANT GEL.
[7] abbreviates: in EXAMPLE 6: GEL AIR FRESHENER
Where [8] appears, read: in EXAMPLE 7: AEROSOL DEODORANT
Where [9] appears, read: in EXAMPLE 9: HAIR SETTING LOTION.
[10] abbreviates: Table 2 (raw materials without adequate malodour-reducing action), 1 μl fragrance + 5 μl 3-mercapto-3-methyl-hexan-1-ol (0.1% in DPG) in 7 l air, 15 h, scale 1 to 9, standard = 6.
Setting [11] is: Table 4, tests with the mixtures (Example 2), according to the raw material test method.

We go through 26 compounds from patent US20070298994A1, “Use of 3-Mercapto-3-Methyl-Hexan-1-Ol for Use as Malodour Standard” (SYMRISE GMBH & CO. KG, priority 2004, published 2007).

Where two headings read alike, the source gives them in different places.

On to `CCC/C(C)=C/C(=O)O` [(E)-3-methyl-2-hexenoic acid, reference compound], for which the “odour threshold value in air” value in test [1] was found to be 15.1 ng/l air.

Turning to `CC(=O)C(C)=CC1C(C)=CCCC1(C)C` (centres unmarked), in test [2] (setting [4]), the “Increase In intensity” value is listed as −0.7 and the Odour reduction value was 5.1.

On to `CCCCC1COCC(C)C1OC(C)=O` (centres unmarked) [3-BUTYL-TETRAHYDRO-5-METHYL-PYRAN-4-OL ACETATE], for which, in test [2] (setting [4]), the “Increase In intensity” value is 1.0 and the Odour reduction value was found to be 3.0.

Take `CC(=O)OC/C=C(\C)CCC=C(C)C` [GERANYL ACETATE, reference compound]: in test [2] (setting [5]), the Increase in intensity was 2.2 and the Malodour-reduction value is recorded as 3.0.

On to `CCCCCCC1OC(=O)CC1C` (mixture of isomers) [(E/Z) 5-HEXYLDIHYDRO-4-METHYL-2-FURANONE], for which, in test [2] (setting [4]), the “Increase In intensity” value amounted to 1.2 and the Odour reduction value is listed as 4.2.

In the case of `CCCCCCCC1CCC(=O)O1` (centres unmarked) [5-HEPTYL-2-DIHYDROFURANONE], in test [2], the “Increase In intensity” value was determined as 1.1 and the Odour reduction value turned out to be 3.8.

Regarding `CC(=CO)CCC1CC=C(C)C1(C)C` (centres unmarked), in test [2] (setting [4]), the “Increase In intensity” value was 0.3 and the Odour reduction value was 3.8>.

Take `CC(C)=CCCC(C)=CC#N` [GERANYL NITRILE, 3,7-dimethyl-2,6-octadiene-1-nitrile, reference compound]: in test [2] (setting [5]), the Increase in intensity is recorded as 3.0 and the Malodour-reduction value came out at 5.0. In test [2], the “intrinsic odour / perfumistic impression (in words)” value is listed as “strong intrinsic odour” and the “reduction in the bad odour based on 3-mercapto-3-methyl-hexan-1-ol (in words)” value is “does show a reduction in the bad odour”.

For `CC(=O)OCCc1ccccc1` [ACETIC ACID-2-PHENYLETHYL ESTER], in test [2] (setting [4]), the “Increase In intensity” value worked out at 1.0 and the Odour reduction value was found to be 4.0.

Take `CCOC(C)=O` [ETHYL ACETATE]: the Increase in intensity is on record as −0.1 in test [3] (setting [6]); 0.0 in test [3] (in EXAMPLE 4: W/O CREAM); 0.5 in test [3] (in EXAMPLE 5: O/W LOTION); 0.5 in test [3] (setting [7]); −0.5 in test [3] (setting [8]); 0.5 in test [3] (in EXAMPLE 8: FOOT CREAM). Moreover, the Increase in intensity in test [3] (setting [9]) is −0.5; in test [3] (in EXAMPLE 10: CARE MASK), 0.8; in test [3] (in EXAMPLE 11: SKIN OIL), −0.5; in test [3] (in EXAMPLE 12: OINTMENT), −0.6; in test [2] (setting [10]), −0.9; in test [2] (setting [11]), −1.1. Also, the Malodour reduction value in test [3] (setting [6]) was 0.5; in test [3] (in EXAMPLE 4: W/O CREAM), 1.0; in test [3] (in EXAMPLE 5: O/W LOTION) it was 0.5; in test [3] (setting [7]), 0.8; in test [3] (setting [8]) it was 1.1; in test [3] (in EXAMPLE 8: FOOT CREAM), 0.8. For the same compound, the Malodour reduction value was 1.2 in test [3] (setting [9]); 1.2 in test [3] (in EXAMPLE 10: CARE MASK); 0.3 in test [3] (in EXAMPLE 11: SKIN OIL); 0.0 in test [3] (in EXAMPLE 12: OINTMENT); 1.1 in test [2] (setting [10]); 1.1 in test [2] (setting [11]).

Consider `Cc1cccc(CC(C)(C)CO)c1`, for which, in test [2] (setting [4]), the “Increase In intensity” value turned out to be 1.2 and the Odour reduction value amounted to 4.4.

In the case of `CCCCCC1CCC(=O)O1` (centres unmarked) [5-PENTYLDIHYDROFURAN-2-ONE], in test [2] (setting [4]), the “Increase In intensity” value is on record as −0.8 and the Odour reduction value was found to be 4.1.

As for `C/C(=C\C#N)CCc1ccccc1` [(E)-3-METHYL-5-PHENYL-2-PENTENE NITRILE], in test [2] (setting [4]), the “Increase In intensity” value worked out at 1.2 and the Odour reduction value amounted to 5.1.

As for `CCCC1CCOC(C)S1` (centres unmarked) [(Z)-2-METHYL-4-PROPYL-1,3-OXATHIANE], in test [2] (setting [4]), the “Increase In intensity” value turned out to be 0.0 and the Odour reduction value is reported as 3.1.

Turning to `CC(C)=CCOC(=O)c1ccccc1O` [SALICYLIC ACID PRENYL ESTER], in test [2] (setting [4]), the “Increase In intensity” value turned out to be 0.2 and the Odour reduction value is listed as 3.6.

`CC1=C[C@H](C)[C@H](C=O)CC1` (relative stereo): in test [2] (setting [4]), the “Increase In intensity” value is −1.3 and the Odour reduction value was 4.4.

`CC(=O)C1(C)CC2=C(CCCC2(C)C)CC1C` (centres unmarked): in test [2] (setting [4]), the “Increase In intensity” value is on record as 0.2 and the Odour reduction value amounted to 3.4.

Take `CC(=O)/C(C)=C/C1C(C)=CCCC1(C)C` (centres unmarked) [GAMMA-METHYLICONE, reference compound]: in test [2] (setting [5]), the Increase in intensity worked out at 2.1 and the Malodour-reduction value came out at 4.0.

As to `CC(C)CCCC(C)CCO` (centres unmarked) [3,7-DIMETHYL OCTANOL, reference compound], in test [2] (setting [5]), the Increase in intensity amounted to 2.2 and the Malodour-reduction value is listed as 4.0. In test [2], the “intrinsic odour / perfumistic impression (in words)” value was “strong perfumistic impression” and the “reduction in the bad odour based on 3-mercapto-3-methyl-hexan-1-ol (in words)” value is reported as “leads to a malodour reduction”.

As for `CCCCCCCCCC=O` [DECANAL], in test [2] (setting [4]), the “Increase In intensity” value was determined as 0.2 and the Odour reduction value is 3.0.

For `COC(=O)C1CC2(C)C=CC1(C(C)C)CC2` (centres unmarked) [1-ISOPROPYL-4-METHYL-BICYCLO[2.2.2]OCT-5-ENE-2-CARBOXYLIC ACID METHYL ESTER], in test [2] (setting [4]), the “Increase In intensity” value is reported as −0.8 and the Odour reduction value is reported as 4.2.

Take `CC12CCC(CC1)C(C)(C)O2` [1,8-CINEOL, reference compound]: in test [2] (setting [5]), the Increase in intensity is on record as 2.4 and the Malodour-reduction value was determined as 5.1.

As to `CC(=O)OC(C)c1ccccc1` (centres unmarked) [ACETIC ACID-1-PHENYLETHYL ESTER], in test [2] (setting [4]), the “Increase In intensity” value is −0.4 and the Odour reduction value is reported as 4.0.

Take `CCCC(C)(S)CCO` (centres unmarked) [3-mercapto-3-methyl-hexan-1-ol]: the “odour threshold value in air” value in test [1] stood at 0.015 ng/l air. Moreover, the “factor by which threshold value is lower than that of (E)-3-methyl-2-hexenoic acid” value in test [1] (odour threshold values in air) worked out at 1000.

Turning to `CCCC(=O)C(CC)Cc1ccccc1` (centres unmarked), in test [2] (setting [4]), the “Increase In intensity” value amounted to 0.1 and the Odour reduction value turned out to be 4.6.

As to `C=CCOC(=O)CCCCCC` [ALLYL HEPTYLATE], in test [2] (setting [4]), the “Increase In intensity” value was −0.5 and the Odour reduction value was determined as 3.0.
